Test results published in ChEMBL document CHEMBL5465560, “Selectivity Literature for EUbOPEN Chemogenomic Library” (2024).

Experiments:
[1] = target: Serine/threonine-protein kinase PLK2 (Homo sapiens, UniProt Q9NYY3); assay: Selectivity interaction (KinomeScan (DiscoverX)) EUB0001049a PLK2; details: at 1 µM
[2] = target: Phosphatidylinositol 4-kinase beta (Homo sapiens, UniProt Q9UBF8); assay: Selectivity interaction (KinomeScan (DiscoverX)) EUB0001079a PI4KB; details: at 1 µM
[3] = target: Chromatin remodeling regulator CECR2 (Homo sapiens, UniProt Q9BXF3); assay: Selectivity interaction (Human bromodomain panel (DSF assay)) EUB0000233b CECR2
[4] = target: Bromodomain adjacent to zinc finger domain protein 2B (Homo sapiens) (UniProt Q9UIF8); assay: Selectivity interaction (Bromodomain panel (DSF asssay)) EUB0000270b BAZ2B
[5] = target: Cyclin-dependent kinase 2 (Homo sapiens, UniProt P24941); assay: Selectivity interaction (KinomeScan (DiscoverX)) EUB0000595a CDK2; details: at 10 µM
[6] = target: cAMP-dependent protein kinase catalytic subunit alpha (Homo sapiens, UniProt P17612); assay: Selectivity interaction (KinomeScan (DiscoverX)) EUB0000045b PRKACA
[7] = target: T1, Serine/threonine-protein kinase D1 (Homo sapiens) (UniProt Q15139); assay: Selectivity interaction (KinomeScan (DiscoverX)) EUB0000618a PRKD1; details: at 10 µM
T1 sequence (whole entry): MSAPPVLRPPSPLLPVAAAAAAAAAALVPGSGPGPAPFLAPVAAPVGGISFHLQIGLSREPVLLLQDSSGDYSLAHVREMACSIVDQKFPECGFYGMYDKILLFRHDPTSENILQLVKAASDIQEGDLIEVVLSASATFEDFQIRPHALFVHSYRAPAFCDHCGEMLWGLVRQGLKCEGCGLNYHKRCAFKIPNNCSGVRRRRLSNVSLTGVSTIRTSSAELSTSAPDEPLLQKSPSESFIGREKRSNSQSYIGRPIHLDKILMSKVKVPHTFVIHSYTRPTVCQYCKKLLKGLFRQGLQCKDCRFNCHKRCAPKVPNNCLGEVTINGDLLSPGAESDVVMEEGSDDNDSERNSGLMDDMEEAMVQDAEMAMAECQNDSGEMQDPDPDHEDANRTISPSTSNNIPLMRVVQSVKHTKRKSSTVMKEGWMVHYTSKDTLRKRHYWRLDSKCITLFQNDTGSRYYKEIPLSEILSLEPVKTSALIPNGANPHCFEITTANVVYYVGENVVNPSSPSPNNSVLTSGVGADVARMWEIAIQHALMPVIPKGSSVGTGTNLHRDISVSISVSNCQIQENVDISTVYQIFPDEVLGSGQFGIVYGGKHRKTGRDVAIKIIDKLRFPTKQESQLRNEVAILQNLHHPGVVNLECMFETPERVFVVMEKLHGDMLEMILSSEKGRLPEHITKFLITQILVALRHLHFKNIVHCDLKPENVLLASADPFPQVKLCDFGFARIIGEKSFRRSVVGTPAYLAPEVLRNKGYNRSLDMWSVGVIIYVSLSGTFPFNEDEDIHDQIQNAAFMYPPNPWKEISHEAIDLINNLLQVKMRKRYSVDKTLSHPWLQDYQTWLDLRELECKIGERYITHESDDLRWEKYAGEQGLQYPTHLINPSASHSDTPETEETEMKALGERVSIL

[8] = target: Vascular endothelial growth factor receptor 3 (Homo sapiens, UniProt P35916); assay: Selectivity interaction (KinomeScan (DiscoverX)) EUB0000618a FLT4; details: at 10 µM
[9] = target: Tyrosine-protein kinase FRK (Homo sapiens) (UniProt P42685); details: at 10 µM
[10] = target: Activin receptor type-1-like (Homo sapiens) (UniProt P37023); assay: Selectivity interaction (LanthaScreen Eu Kinase Binding Assay) EUB0001632a ACVRL1; details: at 10 µM
[11] = target: Serine/threonine-protein kinase 24 (Homo sapiens) (UniProt Q9Y6E0); assay: Selectivity interaction (Kinase panel (Z-LYTE Assay)) EUB0001632a STK24; details: at 10 µM
[12] = target: T2, Beta-adrenergic receptor kinase 1 (Homo sapiens) (UniProt P25098); assay: Selectivity interaction (ProQinase) EUB0000171b ADRBK1
T2 sequence (whole entry): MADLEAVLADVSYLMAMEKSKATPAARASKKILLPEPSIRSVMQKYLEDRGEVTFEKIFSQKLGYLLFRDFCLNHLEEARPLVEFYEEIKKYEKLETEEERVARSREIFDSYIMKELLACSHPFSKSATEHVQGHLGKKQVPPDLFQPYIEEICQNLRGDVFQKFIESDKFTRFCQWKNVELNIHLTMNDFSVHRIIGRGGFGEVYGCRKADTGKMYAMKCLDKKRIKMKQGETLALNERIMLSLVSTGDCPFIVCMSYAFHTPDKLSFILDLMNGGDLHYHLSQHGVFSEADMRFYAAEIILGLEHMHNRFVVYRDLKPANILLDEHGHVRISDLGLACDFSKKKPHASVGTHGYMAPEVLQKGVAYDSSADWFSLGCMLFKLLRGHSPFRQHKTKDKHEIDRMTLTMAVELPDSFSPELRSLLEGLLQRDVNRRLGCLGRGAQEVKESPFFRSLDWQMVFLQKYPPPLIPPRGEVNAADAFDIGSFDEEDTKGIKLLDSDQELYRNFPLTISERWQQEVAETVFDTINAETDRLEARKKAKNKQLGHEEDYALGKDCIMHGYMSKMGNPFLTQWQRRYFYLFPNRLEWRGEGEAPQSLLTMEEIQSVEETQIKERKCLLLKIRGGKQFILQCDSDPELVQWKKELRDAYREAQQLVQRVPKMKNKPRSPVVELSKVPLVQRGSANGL

[13] = target: T3, Protein kinase C zeta type (Homo sapiens) (UniProt Q05513); assay: Selectivity interaction (ProQinase) EUB0000171b PRKCZ; details: at 5 µM
T3 sequence (whole entry): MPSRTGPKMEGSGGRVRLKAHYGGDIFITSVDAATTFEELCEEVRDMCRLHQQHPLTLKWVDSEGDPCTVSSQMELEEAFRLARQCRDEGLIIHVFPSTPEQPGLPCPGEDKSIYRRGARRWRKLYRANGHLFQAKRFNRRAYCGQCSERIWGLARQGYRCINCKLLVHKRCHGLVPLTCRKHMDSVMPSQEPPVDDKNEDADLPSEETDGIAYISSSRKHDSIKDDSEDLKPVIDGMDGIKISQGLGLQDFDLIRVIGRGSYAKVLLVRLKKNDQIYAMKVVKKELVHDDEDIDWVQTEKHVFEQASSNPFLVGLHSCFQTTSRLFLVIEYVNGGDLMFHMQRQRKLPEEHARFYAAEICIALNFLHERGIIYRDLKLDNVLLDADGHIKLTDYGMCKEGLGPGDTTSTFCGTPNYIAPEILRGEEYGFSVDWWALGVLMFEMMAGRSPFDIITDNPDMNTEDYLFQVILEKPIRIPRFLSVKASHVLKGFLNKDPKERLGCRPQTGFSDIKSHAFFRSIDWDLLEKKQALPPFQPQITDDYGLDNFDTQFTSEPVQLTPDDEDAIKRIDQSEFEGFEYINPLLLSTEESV

Tyrosine-protein kinase FRK (Homo sapiens), sequence (P42685 whole entry): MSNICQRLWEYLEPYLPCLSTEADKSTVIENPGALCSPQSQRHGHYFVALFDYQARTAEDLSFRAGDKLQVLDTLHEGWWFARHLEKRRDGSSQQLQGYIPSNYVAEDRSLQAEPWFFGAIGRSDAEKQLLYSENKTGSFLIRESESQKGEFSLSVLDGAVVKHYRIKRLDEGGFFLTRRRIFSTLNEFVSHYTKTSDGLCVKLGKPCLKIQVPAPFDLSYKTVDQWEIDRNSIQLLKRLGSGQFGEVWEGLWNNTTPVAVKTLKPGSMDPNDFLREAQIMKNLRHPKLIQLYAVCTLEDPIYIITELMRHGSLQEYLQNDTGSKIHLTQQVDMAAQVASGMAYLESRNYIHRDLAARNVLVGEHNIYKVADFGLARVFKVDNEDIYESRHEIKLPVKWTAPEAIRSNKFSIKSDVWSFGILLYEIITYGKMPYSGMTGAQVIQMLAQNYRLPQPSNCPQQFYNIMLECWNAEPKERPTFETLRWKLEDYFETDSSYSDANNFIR
Serine/threonine-protein kinase PLK2, sequence (Q9NYY3 whole entry, looked up): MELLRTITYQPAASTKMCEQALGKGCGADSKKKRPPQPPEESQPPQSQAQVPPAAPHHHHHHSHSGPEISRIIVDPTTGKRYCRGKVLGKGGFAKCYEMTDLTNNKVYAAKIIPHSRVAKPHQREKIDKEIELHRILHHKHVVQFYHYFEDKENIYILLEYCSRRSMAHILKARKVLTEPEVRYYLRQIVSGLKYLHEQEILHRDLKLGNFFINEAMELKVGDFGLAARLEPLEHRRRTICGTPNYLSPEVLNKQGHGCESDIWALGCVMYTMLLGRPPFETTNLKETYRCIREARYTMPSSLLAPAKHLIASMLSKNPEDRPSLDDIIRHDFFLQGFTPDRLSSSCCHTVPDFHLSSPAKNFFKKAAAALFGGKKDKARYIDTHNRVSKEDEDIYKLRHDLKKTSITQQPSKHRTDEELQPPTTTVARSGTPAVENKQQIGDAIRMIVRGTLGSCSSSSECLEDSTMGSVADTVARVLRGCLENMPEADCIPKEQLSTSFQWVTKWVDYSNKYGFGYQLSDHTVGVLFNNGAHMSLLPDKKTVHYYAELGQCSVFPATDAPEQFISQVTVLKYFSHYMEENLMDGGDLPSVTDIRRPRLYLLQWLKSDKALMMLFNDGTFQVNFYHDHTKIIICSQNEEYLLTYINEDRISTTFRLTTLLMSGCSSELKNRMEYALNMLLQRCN
Activin receptor type-1-like (Homo sapiens), sequence (P37023 whole entry): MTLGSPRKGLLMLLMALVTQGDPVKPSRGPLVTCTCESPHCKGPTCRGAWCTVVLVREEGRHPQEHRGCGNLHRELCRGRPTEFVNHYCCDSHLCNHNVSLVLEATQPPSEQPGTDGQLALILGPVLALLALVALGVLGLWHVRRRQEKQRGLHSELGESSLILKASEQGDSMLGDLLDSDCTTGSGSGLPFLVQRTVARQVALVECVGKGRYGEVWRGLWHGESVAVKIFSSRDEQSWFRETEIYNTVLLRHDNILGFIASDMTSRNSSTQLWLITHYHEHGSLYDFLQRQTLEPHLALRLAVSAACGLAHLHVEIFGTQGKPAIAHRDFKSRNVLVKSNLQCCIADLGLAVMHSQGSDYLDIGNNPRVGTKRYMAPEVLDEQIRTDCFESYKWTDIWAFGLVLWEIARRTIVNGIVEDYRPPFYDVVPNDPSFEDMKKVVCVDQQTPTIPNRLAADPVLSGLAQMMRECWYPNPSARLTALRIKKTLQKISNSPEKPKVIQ
Serine/threonine-protein kinase 24 (Homo sapiens), sequence (Q9Y6E0 whole entry, looked up): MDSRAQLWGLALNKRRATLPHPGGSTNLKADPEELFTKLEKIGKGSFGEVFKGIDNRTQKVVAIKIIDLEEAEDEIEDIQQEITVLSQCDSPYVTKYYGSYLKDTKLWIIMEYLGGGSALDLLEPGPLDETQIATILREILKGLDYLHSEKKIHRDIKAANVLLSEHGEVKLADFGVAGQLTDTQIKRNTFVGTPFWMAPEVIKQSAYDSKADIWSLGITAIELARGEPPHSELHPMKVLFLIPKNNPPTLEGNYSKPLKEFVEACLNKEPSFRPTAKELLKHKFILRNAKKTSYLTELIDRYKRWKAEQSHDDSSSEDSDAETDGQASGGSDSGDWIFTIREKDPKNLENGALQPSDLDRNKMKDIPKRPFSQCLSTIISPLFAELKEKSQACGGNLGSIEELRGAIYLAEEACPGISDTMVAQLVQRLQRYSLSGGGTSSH
Vascular endothelial growth factor receptor 3, sequence (P35916 whole entry): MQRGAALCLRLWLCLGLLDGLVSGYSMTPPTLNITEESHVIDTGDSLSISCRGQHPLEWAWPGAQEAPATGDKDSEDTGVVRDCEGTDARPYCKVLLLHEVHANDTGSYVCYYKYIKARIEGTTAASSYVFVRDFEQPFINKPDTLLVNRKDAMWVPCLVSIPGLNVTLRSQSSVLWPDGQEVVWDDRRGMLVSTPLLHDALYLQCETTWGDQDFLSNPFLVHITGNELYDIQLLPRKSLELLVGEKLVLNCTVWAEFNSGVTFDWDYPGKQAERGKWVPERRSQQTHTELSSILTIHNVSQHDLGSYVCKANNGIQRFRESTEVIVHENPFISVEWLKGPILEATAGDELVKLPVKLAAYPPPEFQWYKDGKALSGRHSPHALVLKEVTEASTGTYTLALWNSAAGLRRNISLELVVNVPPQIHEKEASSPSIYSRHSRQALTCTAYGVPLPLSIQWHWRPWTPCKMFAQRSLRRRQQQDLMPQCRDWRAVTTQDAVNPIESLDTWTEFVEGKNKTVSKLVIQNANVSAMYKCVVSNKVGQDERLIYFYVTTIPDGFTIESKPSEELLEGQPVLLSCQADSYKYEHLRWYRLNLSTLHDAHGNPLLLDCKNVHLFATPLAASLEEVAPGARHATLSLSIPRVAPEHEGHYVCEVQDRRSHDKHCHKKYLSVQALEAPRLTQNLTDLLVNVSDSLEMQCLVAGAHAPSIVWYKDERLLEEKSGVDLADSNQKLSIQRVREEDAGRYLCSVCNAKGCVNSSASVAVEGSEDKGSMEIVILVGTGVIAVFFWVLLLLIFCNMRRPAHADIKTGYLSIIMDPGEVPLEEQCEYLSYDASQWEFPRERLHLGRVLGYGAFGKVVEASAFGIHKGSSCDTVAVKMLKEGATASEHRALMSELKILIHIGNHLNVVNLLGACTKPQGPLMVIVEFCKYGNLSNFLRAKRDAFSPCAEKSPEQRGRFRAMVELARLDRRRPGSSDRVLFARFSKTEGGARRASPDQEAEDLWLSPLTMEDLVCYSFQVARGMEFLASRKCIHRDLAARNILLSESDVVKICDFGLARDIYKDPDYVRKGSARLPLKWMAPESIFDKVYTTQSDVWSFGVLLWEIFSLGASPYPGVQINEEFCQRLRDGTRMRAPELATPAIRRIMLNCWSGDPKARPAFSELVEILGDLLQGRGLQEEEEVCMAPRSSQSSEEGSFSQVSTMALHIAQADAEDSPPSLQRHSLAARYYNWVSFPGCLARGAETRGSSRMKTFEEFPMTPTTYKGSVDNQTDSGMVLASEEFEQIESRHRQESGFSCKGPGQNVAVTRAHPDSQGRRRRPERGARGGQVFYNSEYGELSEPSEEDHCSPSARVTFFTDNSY
Phosphatidylinositol 4-kinase beta, sequence (Q9UBF8 2-816 limits assumed): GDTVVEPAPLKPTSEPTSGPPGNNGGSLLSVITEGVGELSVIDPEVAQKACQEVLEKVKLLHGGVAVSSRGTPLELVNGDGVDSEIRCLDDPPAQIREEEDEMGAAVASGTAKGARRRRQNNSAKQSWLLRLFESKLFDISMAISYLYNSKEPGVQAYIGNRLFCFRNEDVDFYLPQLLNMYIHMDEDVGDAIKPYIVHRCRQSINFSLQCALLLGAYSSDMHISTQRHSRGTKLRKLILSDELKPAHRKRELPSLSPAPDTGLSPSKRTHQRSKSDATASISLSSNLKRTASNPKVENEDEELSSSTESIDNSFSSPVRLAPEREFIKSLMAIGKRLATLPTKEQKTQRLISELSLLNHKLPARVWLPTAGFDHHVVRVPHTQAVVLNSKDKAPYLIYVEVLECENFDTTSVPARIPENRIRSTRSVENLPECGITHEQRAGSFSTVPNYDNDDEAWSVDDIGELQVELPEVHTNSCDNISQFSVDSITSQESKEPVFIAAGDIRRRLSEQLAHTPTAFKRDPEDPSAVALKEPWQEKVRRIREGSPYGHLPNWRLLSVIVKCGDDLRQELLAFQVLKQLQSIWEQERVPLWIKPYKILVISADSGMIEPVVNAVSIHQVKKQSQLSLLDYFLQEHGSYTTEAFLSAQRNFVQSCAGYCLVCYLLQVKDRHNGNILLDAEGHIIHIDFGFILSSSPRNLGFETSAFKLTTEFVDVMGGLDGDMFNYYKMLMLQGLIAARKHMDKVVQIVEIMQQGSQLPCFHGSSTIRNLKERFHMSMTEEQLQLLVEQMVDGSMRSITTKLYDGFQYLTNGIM

Compound: COc1cc(Nc2nc(C)cc(-c3cnn4nc(OC)ccc34)n2)cc(C(F)(F)F)c1
- % of control [1]: 77%

Compound: Nc1cnc(N2CCc3cc(S(=O)(=O)Nc4c(F)cc(Cl)cc4F)cc(N4CCCC4=O)c32)nc1 [TP-020n]
- % of control [2]: 93%

Compound: CN(C)CCCOc1ccc(-c2cc(NCCCn3cccn3)nc(S(C)(=O)=O)n2)cc1
- dTM [3]: 11.1 K

Compound: Cc1cc(CN)cc(C)c1-c1ncn(C)c1-c1cncn1C
- dTM [4]: -0.9 K

Compound: COCC(=O)NC/C=C/c1ccc2ncnc(Nc3ccc(Oc4ccc(C)nc4)c(C)c3)c2c1 [CP-724714]
- % of control [5]: 92%

Compound: C=CC(=O)Nc1cc(-n2c(=O)ccc3cnc4ccc(-c5ccc(NS(C)(=O)=O)cc5)cc4c32)ccc1C
- % of control ([6]; at 1 µM): 83%
- % of control ([6]; at 10 µM): 100%

Compound: O[C@H]1CC[C@H](Nc2ncc3nc(Nc4c(F)cc(F)cc4F)n([C@H]4CCOC4)c3n2)CC1
- % of control [7]: 46%
- % of control [8]: 55%

Compound: Cc1cc([C@@H](C)Nc2ccccc2C(=O)O)c2nc(N3CCOCC3)cc(=O)n2c1 [AZD-6482]
- % of control [9]: 83%

Compound: Cn1cc(-n2cnc3c(NCc4nc5cc(Cl)c(Cl)cc5[nH]4)nc(N4CCOCC4)nc32)cn1
- % of inhibition [10]: -13%
- % of control [11]: 1.16%

Compound: C=CC(=O)Nc1cccc(C(=O)Nc2ccc(Nc3cc(-c4[nH]c(SC)nc4C)ccn3)cc2)c1
- % of control ([12]; at 1 µM): 101%
- % of control ([12]; at 5 µM): 88%
- % of control [13]: 68%
